One data set concerns CatB and CatL. Put plainly: Z-Phe-Arg-AMC substrate degradation in whole cell lysates with CA-074. In kind it is biochemical. Conditions: CA-074 10 μM.
The test system of the next data set is SARS-CoV-2 Omicron. Put plainly: microbe, parasite or virus in culture. In kind it is cell-based. Conditions: Severe acute respiratory syndrome coronavirus 2, read-out: EC90 (mean ± SD).
A short description of data set [1]: in vitro. The following applies: human.
Data set [2] is described as follows: in vitro. The following applies: human. The source holds these as a separate data set.

For `CCCNC(=O)[C@H]1O[C@@H]1C(=O)N[C@H](C(=O)N1CCC[C@H]1C(=O)O)[C@@H](C)CC` [CA-074], the Z-Phe-Arg-AMC substrate degradation result with CatB and CatL (Calu-3 whole cell lysate) is recorded as “almost completely abolished”; with CatB and CatL (Huh7-hACE2 whole cell lysate), “almost completely abolished”; in the data set with CatB and CatL (Vero E6 whole cell lysate), “did not reduce substrate degradation”.

Regarding `CCN(CCO)CCCC(C)Nc1ccnc2cc(Cl)ccc12` (stereo not shown) [Hydroxychloroquin, Hydroxychloroquine], in the data set on SARS-CoV-2 Omicron, the concentration for an effect of 90% (EC90) stood at 7.7 ± 1.2 µM.

With `O=[N+]([O-])c1ccc(O)c2ncccc12` [Nitroxoline, nitroxoline], in the data set on SARS-CoV-2 Omicron, the 90% effect concentration (EC90) came to 6.4 ± 0.6 µM. For the same compound, the CC50 in “in vitro [1]” and in “in vitro [2]” was over 100 µM each time.

The values above are taken from paper PMC10287183 (Antiviral Research, 2023).
